Measured values as given in the NIST ThermoML archive (doi:10.1021/acs.jced.8b00182).

How the values were obtained:
[1] = xn = mol fraction of the nth substance listed; conditions: 298.15 K, 100 kPa, Liquid, Vibrating tube method
[2] = refractive index (Na D-line) (dimensionless); conditions: 298.15 K; 101.33 kPa; Liquid; Standard Abbe refractometry
[3] = Liquid; for mass density: 298.15 K, 100 kPa, Vibrating tube method; for vapor or sublimation pressure / Normal boiling temperature: Ebulliometric method (Recirculating still)

CCCCO [butan-1-ol] + CCCCOC(C)=O
Conditions | mass density [kg/m3]
[1], x2 = 0 | 805.9

CCCO [propan-1-ol]
Conditions | Normal boiling temperature [°C] | mass density [kg/m3] | refractive index
[2] | – | – | 1.38315
[3] | 97.20 | 799.6 | –

Conditions | vapor or sublimation pressure [kPa]
[3], 381.24 K | 150

CO [methanol]
Conditions | Normal boiling temperature [°C] | refractive index
[2] | – | 1.32676
[3] | 64.70 | –

Conditions | vapor or sublimation pressure [kPa]
[3], 348.27 K | 150

CCO [ethanol] + CCCCOC(C)=O
Conditions | mass density [kg/m3]
[1], x2 = 0 | 785.2

CCCCOC(C)=O [butyl ethanoate] + CCCO
[1]
Conditions | mass density [kg/m3]
x1 = 0.0433 | 805.1
x1 = 0.1028 | 812.1
x1 = 0.2026 | 822.6
x1 = 0.2517 | 827.3
x1 = 0.2927 | 831
x1 = 0.35 | 835.9
x1 = 0.3986 | 839.8
x1 = 0.4482 | 843.6
x1 = 0.554 | 851.1
x1 = 0.5962 | 853.9
x1 = 0.6371 | 856.5
x1 = 0.7071 | 860.8
x1 = 0.7623 | 864
x1 = 0.8001 | 866.1
x1 = 0.8413 | 868.4
x1 = 0.8942 | 871.2
x1 = 0.9401 | 873.5
x1 = 1 | 876.5

CCO [ethanol]
Conditions | Normal boiling temperature [°C] | mass density [kg/m3] | refractive index
[2] | – | – | 1.35933
[3] | 78.30 | 785.2 | –

Conditions | vapor or sublimation pressure [kPa]
[3], 361.98 K | 150

CCCCOC(C)=O [butyl ethanoate]
Conditions | Normal boiling temperature [°C] | mass density [kg/m3] | refractive index
[2] | – | – | 1.39201
[3] | 125.83 | 876.5 | –

Conditions | vapor or sublimation pressure [kPa]
[3], 413.3 K | 150

CCCCOC(C)=O [butyl ethanoate] + CCO
[1]
Conditions | mass density [kg/m3]
x1 = 0.0443 | 793.7
x1 = 0.1461 | 810.2
x1 = 0.2003 | 817.6
x1 = 0.2554 | 824.3
x1 = 0.2954 | 828.8
x1 = 0.3487 | 834.3
x1 = 0.4451 | 843
x1 = 0.4968 | 847.2
x1 = 0.5987 | 854.6
x1 = 0.6505 | 858
x1 = 0.7492 | 863.9
x1 = 0.8035 | 866.9
x1 = 0.8567 | 869.7
x1 = 0.8978 | 871.7
x1 = 0.9429 | 873.9
x1 = 1 | 876.5

CCCCO [butan-1-ol]
Conditions | mass density [kg/m3] | refractive index
[2] | – | 1.39732
[3] | 805.9 | –

Conditions | vapor or sublimation pressure [kPa]
[3], 402.59 K | 150

CCCO [propan-1-ol] + CCCCOC(C)=O
Conditions | mass density [kg/m3]
[1], x2 = 0 | 799.6

CCCCOC(C)=O [butyl ethanoate] + CCCCO
[1]
Conditions | mass density [kg/m3]
x1 = 0.0758 | 812.9
x1 = 0.1018 | 815.2
x1 = 0.1458 | 819
x1 = 0.2387 | 826.7
x1 = 0.3151 | 832.7
x1 = 0.3468 | 835.1
x1 = 0.3845 | 837.9
x1 = 0.3983 | 838.9
x1 = 0.4316 | 841.3
x1 = 0.5002 | 846.1
x1 = 0.5883 | 852
x1 = 0.6709 | 857.3
x1 = 0.7064 | 859.5
x1 = 0.7919 | 864.7
x1 = 0.8673 | 869.1
x1 = 0.9259 | 872.4
x1 = 0.9503 | 873.8
x1 = 1 | 876.5
